The experiment deals with TARP γ8 dependent AMPA receptor (GRIA1o-CACNG8 fusion construct) (Homo sapiens (Human), UniProt P42261+Q8WXS5). The experiment in a line: Calcium flux assay (FLIPR), inhibition of glutamate response of GluA1o-γ8 channel. Conditions: HEK293 cells stably expressing GRIA1o-CACNG8 fusion; calcium flux after 15 μM glutamate; negative log of the IC50 in molar. It counts as cell-based. The source says: This assay was used to test compounds for their ability to inhibit TARP γ8 dependent AMPA receptor activity. The AMPA receptor is a non-selective cation channel activated by glutamate. […] But, this desensitization is incomplete, and a substantial steady-state current remains in the sustained presence of glutamate (Cho et al. (2007). “Two families of TARP isoforms that have distinct effects on the kinetic properties of AMPA receptors and synaptic currents.” Neuron 55(6): 890-904).
Sequence of TARP γ8 dependent AMPA receptor (GRIA1o-CACNG8 fusion construct) (P42261 other isoform, or with tags, fused parts or gaps): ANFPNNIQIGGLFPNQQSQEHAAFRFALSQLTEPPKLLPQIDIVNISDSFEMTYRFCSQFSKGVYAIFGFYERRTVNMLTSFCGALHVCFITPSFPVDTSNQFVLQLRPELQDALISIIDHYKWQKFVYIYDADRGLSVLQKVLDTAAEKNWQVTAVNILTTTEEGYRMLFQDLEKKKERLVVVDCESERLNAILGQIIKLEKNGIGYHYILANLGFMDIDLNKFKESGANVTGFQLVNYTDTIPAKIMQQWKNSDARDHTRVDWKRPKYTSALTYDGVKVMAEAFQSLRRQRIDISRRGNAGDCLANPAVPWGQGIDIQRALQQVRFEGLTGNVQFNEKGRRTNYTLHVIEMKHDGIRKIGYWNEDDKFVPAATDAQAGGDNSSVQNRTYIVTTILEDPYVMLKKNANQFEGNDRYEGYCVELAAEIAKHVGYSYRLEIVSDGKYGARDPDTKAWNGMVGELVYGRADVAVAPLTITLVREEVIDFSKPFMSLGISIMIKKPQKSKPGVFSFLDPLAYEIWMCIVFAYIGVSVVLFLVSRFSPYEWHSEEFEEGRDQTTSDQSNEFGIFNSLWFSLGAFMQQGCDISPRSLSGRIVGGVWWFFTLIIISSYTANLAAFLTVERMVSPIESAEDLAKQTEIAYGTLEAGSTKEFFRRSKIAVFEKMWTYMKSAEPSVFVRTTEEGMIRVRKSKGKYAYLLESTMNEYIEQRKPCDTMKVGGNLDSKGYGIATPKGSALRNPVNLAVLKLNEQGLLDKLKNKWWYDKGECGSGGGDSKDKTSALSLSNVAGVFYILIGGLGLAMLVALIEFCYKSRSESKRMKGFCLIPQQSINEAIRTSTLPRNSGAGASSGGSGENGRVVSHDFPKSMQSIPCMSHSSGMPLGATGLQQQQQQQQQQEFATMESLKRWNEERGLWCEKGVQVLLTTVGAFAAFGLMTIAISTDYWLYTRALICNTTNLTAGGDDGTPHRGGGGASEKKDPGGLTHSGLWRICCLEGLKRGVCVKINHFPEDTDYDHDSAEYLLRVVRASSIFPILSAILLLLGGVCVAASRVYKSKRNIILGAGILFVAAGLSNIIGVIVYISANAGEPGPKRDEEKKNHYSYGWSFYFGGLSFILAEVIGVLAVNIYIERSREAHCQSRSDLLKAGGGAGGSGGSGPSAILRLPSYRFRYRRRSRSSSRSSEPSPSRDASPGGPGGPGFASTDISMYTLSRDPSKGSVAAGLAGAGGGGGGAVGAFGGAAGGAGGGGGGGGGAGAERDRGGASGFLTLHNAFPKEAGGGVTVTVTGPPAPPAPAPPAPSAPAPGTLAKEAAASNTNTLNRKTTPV
An in vitro assay was used to determine the potency of test compounds as inhibitors of the glutamate response of the channel formed by GluA10-γ8. To ensure a 1:1 stoichiometry of GluA1o and γ8 subunits in the expressed channel, a fusion of the cDNAs for GRIA1o and CACNG8 was used. Following Shi et al (2009) “The stoichiometry of AMPA receptors and TARPs varies by neuronal cell type.” Neuron 62(5): 633-640), the C-terminus of the cDNA for GRIA1o was fused to the N-terminus of the cDNA for γ8. The linker sequence was […]. Channels expressed with this construct appear to have similar properties to channels formed by co-expression of GRIA1o with an excess of CACNG8 (Shi et al. 2009). A clonal cell line in HEK293 cells stably expressing this construct, with a geneticin selection marker, was generated for use in this assay.
Cell expressing the GRIA1o-CACNG8 fusion construct were grown in a monolayer in 96- or 384-well microtiter plates. They were washed with assay buffer (135 mM NaCl, 4 mM KCl, 3 mM CaCl2, 1 mM MgCl2, 5 mM glucose, 10 mM HEPES, pH 7.4, 300 mOs) using a Biotek EL405 plate washer. The cells were then loaded with a calcium-sensitive dye (Calcium-5 or Calcium-6, Molecular Devices) and the test compounds at a range of concentrations. Calcium flux following the addition of 15 μM glutamate was monitored using a Molecular Devices FLIPR Tetra.
The fluorescence in each well was normalized to the fluorescence of negative and positive control wells. The negative control wells had no added compounds, and the positive control wells had been incubated with 10 μM CP465022 (a non-subtype-selective AMPA receptor antagonist) (Lazzaro et al. (2002). “Functional characterization of CP-465,022, a selective, noncompetitive AMPA receptor antagonist.” Neuropharmacology 42(2): 143-153). The responses to glutamate as functions of the test compound concentrations were fitted to a four-parameter logistic function. The fitted parameter corresponding to the midpoint was taken to be the potency of inhibition of the compound. The data in Table 4 below illustrates the observed potency for the compounds described herein. pIC50 refers to the negative log of the IC50 in molar.
On to `CC(C)c1cc2ccc(C(F)(F)F)c(-c3cc(Cl)c4c(c3)CC(=O)N4)n2n1` [Example 72, 5-(2-Isopropyl-6-(trifluoromethyl)pyrazolo[1,5-a]pyridin-7-yl)-7-chloroindolin-2-one], for which the IC50 is 0.0126 nM.

Turning to `FC(F)(F)c1nc2ccc(C(F)(F)F)c(-c3cc(Cl)c4[nH]ncc4c3)n2n1` [Example 1, 5-(7-Chloro-1H-indazol-5-yl)-2,6-bis(trifluoromethyl)-[1,2,4]triazolo[1,5-a]pyridine], the half-maximal inhibitory concentration (IC50) is 0.0794 nM. The same measure, in the same setting: the value for `CC(C)c1nc2c(F)cc(C(F)(F)F)c(-c3cc(Cl)c4[nH]ncc4c3)n2n1` [Example 34, 5-(7-Chloro-1H-indazol-5-yl)-8-fluoro-2-isopropyl-6-(trifluoromethyl)-[1,2,4]triazolo[1,5-a]pyridine] was 0.316 nM. Regarding `Cc1cc(-c2c(-c3ccc(F)cc3)ccc3nc(C(F)(F)F)nn23)cc2cn[nH]c12` [Example 55, 6-(4-Fluorophenyl)-5-(7-methyl-1H-indazol-5-yl)-2-(trifluoromethyl)-[1,2,4]triazolo[1,5-a]pyridine], the IC50 is 0.0398 nM. Consider `Cc1cc(C(F)F)c(-c2cc(Cl)c3c(c2)CC(=O)N3)n2nc(C3CC3)nc12` [Example 113, 7-Chloro-5-(2-cyclopropyl-6-(difluoromethyl)-8-methyl-[1,2,4]triazolo[1,5-a]pyridin-5-yl)indolin-2-one], for which the half-maximal inhibitory concentration (IC50) was 0.316 nM.

Turning to `COc1nc2ccc(C(F)(F)F)c(-c3cc(Cl)c4[nH]ncc4c3)n2n1` [Example 43, 5-(7-Chloro-1H-indazol-5-yl)-2-methoxy-6-(trifluoromethyl)-[1,2,4]triazolo[1,5-a]pyridine], the IC50 is 3.16 nM. In the case of `CCCc1nc2c(Cl)cc(C(F)(F)F)c(-c3cc(C)c4c(c3)CC(=O)N4)n2n1` [Example 98, 5-(8-Chloro-2-propyl-6-(trifluoromethyl)-[1,2,4]triazolo[1,5-a]pyridin-5-yl)-7-methylindolin-2-one], the half-maximal inhibitory concentration (IC50) was 0.794 nM. As to `Cc1cc(-c2c(C(F)(F)F)cc(C)c3nc(C(F)F)nn23)cc2cn[nH]c12` [Example 86, 2-(Difluoromethyl)-8-methyl-5-(7-methyl-1H-indazol-5-yl)-6-(trifluoromethyl)-[1,2,4]triazolo[1,5-a]pyridine], the pIC50 was found to be 9.4.

For the compound `CCc1cc(C(F)F)c(-c2cc(Cl)c3[nH]ncc3c2)n2nc(C3CC3)nc12` [Example 93, 5-(7-Chloro-1H-indazol-5-yl)-2-cyclopropyl-6-(difluoromethyl)-8-ethyl-[1,2,4]triazolo[1,5-a]pyridine], the IC50 is 0.158 nM.

On to `CC(C)c1cc2ccc(C(F)(F)F)c(-c3cc(Cl)c4[nH]ncc4c3)n2n1` [Example 73, 7-Chloro-5-(2-isopropyl-6-(trifluoromethyl)pyrazolo[1,5-a]pyridin-7-yl)-1H-indazole], for which the IC50 was 0.01 nM.

For `CCc1nc2c(F)cc(C(F)(F)F)c(-c3cc(Cl)c4c(c3)CC(=O)N4)n2n1` [Example 32, 7-Chloro-5-[2-ethyl-8-fluoro-6-(trifluoromethyl)-[1,2,4]triazolo[1,5-a]pyridin-5-yl]indolin-2-one], the IC50 is 2 nM. Take `Cc1cc(-c2c(C(F)F)ccc3cc(C(F)(F)F)nn23)cc2cn[nH]c12` [Example 121, 6-(Difluoromethyl)-7-(7-methyl-1H-indazol-5-yl)-2-(trifluoromethyl)pyrazolo[1,5-a]pyridine]: the IC50 is 0.0251 nM. For `COc1ccc2nc(C(F)F)nn2c1-c1cc(Cl)c2[nH]ncc2c1` [Example 13, 5-(7-Chloro-1H-indazol-5-yl)-2-(difluoromethyl)-6-methoxy-[1,2,4]triazolo[1,5-a]pyridine], the IC50 was 5.01 nM. In the case of `Cc1cc(-c2c(C(F)(F)F)ccc3nc(C4CC4)nn23)cc2c1NC(=O)C2` [Example 41, 5-(2-Cyclopropyl-6-(trifluoromethyl)-[1,2,4]triazolo[1,5-a]pyridin-5-yl)-7-methylindolin-2-one], the IC50 was 0.631 nM. On to `Cc1cc(C(F)(F)F)c(-c2cc(C#N)c3c(c2)CC(=O)N3)n2nc(C(F)(F)F)nc12` [Example 108, 5-(8-Methyl-2,6-bis(trifluoromethyl)-[1,2,4]triazolo[1,5-a]pyridin-5-yl)-2-oxoindoline-7-carbonitrile], for which the half-maximal inhibitory concentration (IC50) was 3.98 nM. As to `O=C1Cc2cc(-c3c(C(F)(F)F)ccc4nc(C5CC5)nn34)cc(Cl)c2N1` [Example 40, 7-Chloro-5-(2-cyclopropyl-6-(trifluoromethyl)-[1,2,4]triazolo[1,5-a]pyridin-5-yl)indolin-2-one], the half-maximal inhibitory concentration (IC50) was 0.398 nM.

Regarding `Cc1cc(C(F)F)c(-c2cc(Cl)c3[nH]ncc3c2)n2nc(C3CC3)nc12` [Example 112, 5-(7-Chloro-1H-indazol-5-yl)-2-cyclopropyl-6-(difluoromethyl)-8-methyl-[1,2,4]triazolo[1,5-a]pyridine], the half-inhibitory concentration (IC50) was 0.1 nM. On the same count and under the same terms, the value for `CCc1nc2c(CC)cc(C(F)(F)F)c(-c3cc(Cl)c4[nH]ncc4c3)n2n1` [Example 89, 5-(7-Chloro-1H-indazol-5-yl)-2,8-diethyl-6-(trifluoromethyl)-[1,2,4]triazolo[1,5-a]pyridine] was 0.794 nM; that for `Cc1nc2ccc(C(F)(F)F)c(-c3cc(Cl)c4[nH]ncc4c3)n2n1` [Example 21, 5-(7-Chloro-1H-indazol-5-yl)-2-methyl-6-(trifluoromethyl)-[1,2,4]triazolo[1,5-a]pyridine] was 0.631 nM. For the compound `Cc1cc(C(F)(F)F)c(-c2cc(Cl)c3[nH]ncc3c2)n2nc(C(F)(F)F)nc12` [Example 6, 5-(7-Chloro-1H-indazol-5-yl)-8-methyl-2,6-bis(trifluoromethyl)-[1,2,4]triazolo[1,5-a]pyridine], the IC50 is 0.2 nM. With `CCc1nc2ccc(C(F)(F)F)c(-c3cc(C)c4c(c3)CC(=O)N4)n2n1` [Example 28, 5-(2-Ethyl-6-(trifluoromethyl)-[1,2,4]triazolo[1,5-a]pyridin-5-yl)-7-methylindolin-2-one], the IC50 is 3.98 nM. Turning to `Cc1nc2c(C)cc(C(F)(F)F)c(-c3cc(Cl)c4[nH]ncc4c3)n2n1` [Example 116, 5-(7-Chloro-1H-indazol-5-yl)-2,8-dimethyl-6-(trifluoromethyl)-[1,2,4]triazolo[1,5-a]pyridine], the IC50 was 2.51 nM. Take `COc1cc(-c2c(C(F)F)ccc3nc(C(F)(F)F)nn23)cc2c1NC(=O)C2` [Example 20, 5-[6-(Difluoromethyl)-2-(trifluoromethyl)-[1,2,4]triazolo[1,5-a]pyridin-5-yl]-7-methoxy-indolin-2-one]: the IC50 is 2.51 nM.

Consider `CCc1nc2c(C)cc(C(F)(F)F)c(-c3cc(Cl)c4c(c3)CC(=O)N4)n2n1` [Example 100, 7-Chloro-5-(2-ethyl-8-methyl-6-(trifluoromethyl)-[1,2,4]triazolo[1,5-a]pyridin-5-yl)indolin-2-one], for which the concentration for half-maximal inhibition (IC50) was 0.631 nM. Turning to `CCOc1nc2c(C)cc(C(F)(F)F)c(-c3cc(Cl)c4[nH]ncc4c3)n2n1` [Example 117, 5-(7-Chloro-1H-indazol-5-yl)-2-ethoxy-8-methyl-6-(trifluoromethyl)-[1,2,4]triazolo[1,5-a]pyridine], the concentration for half-maximal inhibition (IC50) is 2.51 nM. In the case of `CCc1cc(C(F)(F)F)c(-c2cc(C)c3[nH]ncc3c2)n2nc(C(F)F)nc12` [Example 88, 2-(Difluoromethyl)-8-ethyl-5-(7-methyl-1H-indazol-5-yl)-6-(trifluoromethyl)-[1,2,4]triazolo[1,5-a]pyridine], the IC50 is 1.58 nM.
